The text below walks through data of patent US5891890A, “Benzamide derivatives, anti-ulcer drug, and antibacterial drug” (Shiseido Co., Ltd., priority 1997, dated 1999).

Series [1] deals with isolated gastric fundic gland (histamine-stimulated acid secretion). As to the kind of experiment: CAP: Acid Secretion Inhibition Test In Vitro ([14C]-aminopyrine uptake). The series is classed as cell-based, male Japanese White rabbit. To be noted: Oryctolagus cuniculus, 40 min, final concentration 10^-5 M, histamine 10^-5 M, 37° C., read-out: CAP: acid secretion inhibitory rate. As for the experimental part:
CAP: Acid Secretion Inhibition Test In Vitro
The acid secretion inhibitory activity in a cell level is studied. It can also be used for studying the mechanism of the effect. […]
ii-a) Preparation of isolated gastric fundus gland suspension
First, an isolated gastric fundic gland sample was prepared. Namely, a male Japanese White rabbit (2.5 to 3 kg) was anesthetized to death with Nembutal™ and then the abdomen was incised. Immediately thereafter, the stomach was removed and, after its pyloric and cardiac antrum were severed, incised along its greater curvature into two sheets. […]
Into 70 ml of the nutrient solution containing 1 mg/ml of collagenase, minced mucosal pieces were dispersed and intensely stirred in a conical flask with a stirrer at 37° C. for 40 to 60 minutes. During this period, 100% O2 was sprayed on the nutrient solution surface and the pH was appropriately measured such that it was immediately adjusted to pH 7.4, when the value was therebelow, with a base. […] The number of cells was counted under microscope and adjusted to 1.6×10^6 cells/ml. […]
Then, [^14 C]-aminopyrine uptake test was performed. […] The gland pellet was completely dried as the tube with its lid being opened was kept for one night in a drying oven at 80° C. and then the lid was closed and the weight was determined at room temperature. […]

A further series relates to stress ulcer formation. As to the kind of experiment: WIS: Restraint and Water Immersion Stress-Induced Ulcer Inhibition Test. In kind it is in vivo, male Crj:SD or Slc:SD rats. To be noted: 100 mg/kg oral, 10 min before 7 h restraint and water immersion (21° C.), SD rats. As for the experimental part: WIS: Restraint and Water Immersion Stress-Induced Ulcer Inhibition Test
The degree of inhibition of the stress ulcer formation is tested.
Male Crj:SD or Slc:SD rats (6 to 7-week-old) were fasted overnight, but allowed free access to water. Each group has 5 to 8 of these rats. The sample compound was dissolved or suspended in an aqueous solution of 0.3% sodium carboxymethylcellulose or 0.05% Tween 80 and then was orally administered (100 mg/10 ml/kg). To a control group, the vehicle was administered. 10 minutes later, the rats were placed in a stress cage and immersed to the level of xipfoid process in a water bath (21° C.) for 7 hours. At the end of the stress, the rats were sacrificed by inhalation of ether or carbon dioxide. Then, the stomach of each was removed, inflated by injecting 10 ml of 5% formalin neutral buffer solution, and immersed in 1% formalin neutral buffer solution for 30 minutes or more to be fixed. The stomach was incised along the greater curvature and then the length of each erosion in the glandular portion was determined under dissecting microscope. The sum of the length of erosions per stomach was defined as ulcer index (UI).
The effect obtained when 100 mg/kg of the sample compound had been administered was expressed as ulcer formation inhibitory rate (%) as follows:
ulcer formation inhibitory rate (%)=(1-(UI in sample group/UI in control

Series [2] is described as follows: MTT: Cell Damaging and Protecting Effect Test. In kind it is cell-based, male Japanese White rabbit. To be noted: rabbit, gastric corpus mucosa cells, final concentration 10^-4 M, 37° C., smaller value is better, read-out: MTT: cell damaging rate. From the text:
MTT: Cell Damaging and Protecting Effect Test
It is confirmed that there is no toxicity in cell level. Those having a toxicity in cell level are inappropriate as an anti-ulcer drug.
A male Japanese White rabbit (2.5 to 3 kg) was anesthetized to death by Nembutal™ and, immediately thereafter, its stomach was removed. The greater curvature of the stomach was incised so as to remove the stomach contents therefrom. After the mucosal surface was washed with HBSS (Hanks' Balanced Salt Solution), the stomach in ice-cooled HBSS was transferred to a laboratory. […]
The sample compound was dissolved in DMSO so as to attain a concentration of 10^-2 M and then diluted with HBSS containing 2% of Ultrocer G™ so as to attain a final concentration of 10^-4 M. To each group, which 8 wells were used for, 10 μl of MTT reagent was added immediately after 100 μl of the medium in each well was exchanged for same volume of the resulting solution of the sample compound. […] Then, the absorbance (OD: 570 to 630) was measured by a microplate reader. […]
The cell damaging or cell protecting effect of the sample compound at the final concentration of 10^-4 M was expressed as cell damaging rate (%) as follows:
cell damaging rate (%)=(1-(absorbance in sample group/absorbance in control […]

As to `CC(C)Cc1cc(C(=O)NCCCOc2cccc(CN3CCCCC3)c2)ccc1OCc1ccc(F)cc1` [Example 1], in series [1], the inhibition at 10 µM was found to be 104%. The “WIS: ulcer formation inhibitory rate” value with stress ulcer formation turned out to be 55%. The cytotoxicity at 4 h, 100 µM in series [2] is -3%.
Regarding `CC(C)=CCC/C(C)=C/COc1ccc(C(=O)NCCCOc2cccc(CN3CCCCC3)c2)cc1` [Example 2], in series [1], the inhibition at 10 µM worked out at 102%. Further, the “WIS: ulcer formation inhibitory rate” value in the series on stress ulcer formation was 62%. In series [2], the cytotoxicity at 4 h, 100 µM was found to be 49%.
